The values below come from US12344597B2, “Alkoxy-substituted pyridinyl derivatives as LPA1 receptor antagonists and their use in the treatment of fibrosis” (IDORSIA PHARMACEUTICALS LTD, priority 2018, dated 2025).

As a reminder, the pIC50 is the negative decadic logarithm of the IC50, by convention in mol/L.

Molecules are shown by their SMILES. pIC50: −log10 of the molar value.

In this experiment the target is human LPA1 receptor (Homo sapiens (Human), UniProt Q92633). Nature of the experiment: Beta-arrestin recruitment assay to determine IC50 values for human LPAR1. Type of experiment: cell-based. The conditions noted are these: antagonist mode, Tango EDG2-bla U2OS cells, LPA 18:1 500 nM final. In a few lines: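 Tango EDG2-bla U2OS cells: LPA-driven beta-arrestin/TEV protease recruitment releases Gal4-VP16, inducing beta-lactamase reporter read with live-cell substrate. Cells seeded 20 h at 37 °C beforehand. IC50 is antagonist concentration inhibiting 50% of maximal response.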
Sequence of human LPA1 receptor (Q92633 whole entry, the tested form may be a part): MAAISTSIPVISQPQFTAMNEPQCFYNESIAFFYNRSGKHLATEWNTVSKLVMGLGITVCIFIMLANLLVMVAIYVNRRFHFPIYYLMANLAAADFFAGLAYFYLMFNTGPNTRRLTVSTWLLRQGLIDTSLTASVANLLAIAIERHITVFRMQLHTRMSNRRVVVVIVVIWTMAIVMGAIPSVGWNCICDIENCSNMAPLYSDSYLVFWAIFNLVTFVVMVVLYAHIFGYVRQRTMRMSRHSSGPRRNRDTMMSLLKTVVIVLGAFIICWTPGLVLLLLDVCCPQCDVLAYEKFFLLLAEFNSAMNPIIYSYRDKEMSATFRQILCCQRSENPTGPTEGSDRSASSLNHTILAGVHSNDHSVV
On the technique in general: Recruitment of arrestin is a read-out of receptor activation apart from second messengers.
The compound `COC(=O)C(C)(C)CC(=O)N1CC(C(=O)Nc2ccc(OC)nc2OC)(c2ccccc2C(C)C)C1` [Ex 12-85, methyl 4-(3-((2,6-dimethoxypyridin-3-yl)carbamoyl)-3-(2-isopropylphenyl)azetidin-1-yl)-2,2-dimethyl-4-oxobutanoate] showed a negative logarithm of the IC50 (pIC50) of 6.85.
Compound `COc1ccc(NC(=O)C2(c3ccccc3C(C)C)CN(C(=O)CC(C)(C)C(=O)O)C2)c(OC)n1` [Ex 12-86, 4-(3-((2,6-dimethoxypyridin-3-yl)carbamoyl)-3-(2-isopropylphenyl)azetidin-1-yl)-2,2-dimethyl-4-oxobutanoic acid] had a negative-log IC50 (pIC50) of 7.57.
In the case of `CC(C)c1ccccc1C1(C(=O)Nc2cc(F)cnc2OC(F)F)CN(C(=O)CC(C)(C)C(=O)O)C1` [Ex 12-87, 4-(3-((2-(difluoromethoxy)-5-fluoropyridin-3-yl)carbamoyl)-3-(2-isopropylphenyl)azetidin-1-yl)-2,2-dimethyl-4-oxobutanoic acid], the negative-log IC50 (pIC50) is 7.39.
On to `Cc1ccc(NC(=O)C2(c3ccccc3C(C)C)CN(C(=O)[C@H](C)CC(=O)O)C2)c(OC(F)F)n1` [Ex 12-90, (R)-4-(3-((2-(difluoromethoxy)-6-methylpyridin-3-yl)carbamoyl)-3-(2-isopropylphenyl)azetidin-1-yl)-3-methyl-4-oxobutanoic acid], for which the negative logarithm of the IC50 (pIC50) was 7.85.
The figure for `Cc1ccc(NC(=O)C2(c3ccccc3C(C)C)CN(C(=O)C(C)(C)CC(=O)O)C2)c(OC(F)F)n1` [Ex 12-91, 4-(3-((2-(difluoromethoxy)-6-methylpyridin-3-yl)carbamoyl)-3-(2-isopropylphenyl)azetidin-1-yl)-3,3-dimethyl-4-oxobutanoic acid] is 8.30.
`C=C(CC(=O)OC)C(=O)N1CC(C(=O)Nc2ccc(C)nc2OC(F)F)(c2ccccc2C(C)C)C1` [Ex 12-92, methyl 3-(3-((2-(difluoromethoxy)-6-methylpyridin-3-yl)carbamoyl)-3-(2-isopropylphenyl)azetidine-1-carbonyl)but-3-enoate]: the pIC50 was 6.96.
For `C=C(CC(=O)O)C(=O)N1CC(C(=O)Nc2ccc(C)nc2OC(F)F)(c2ccccc2C(C)C)C1` [Ex 12-93, 3-(3-((2-(difluoromethoxy)-6-methylpyridin-3-yl)carbamoyl)-3-(2-isopropylphenyl)azetidine-1-carbonyl)but-3-enoic acid], the pIC50 is 8.15.
`COC(=O)[C@H]1C[C@H]1C(=O)N1CC(C(=O)Nc2ccc(C)nc2OC(F)F)(c2ccccc2C(C)C)C1` [Ex 12-94, methyl (1S,2R)-2-(3-((2-(difluoromethoxy)-6-methylpyridin-3-yl)carbamoyl)-3-(2-isopropylphenyl)azetidine-1-carbonyl)cyclopropane-1-carboxylate] gave a negative-log IC50 (pIC50) of 7.29.
Consider `Cc1ccc(NC(=O)C2(c3ccccc3C(C)C)CN(C(=O)[C@@H]3C[C@@H]3C(=O)O)C2)c(OC(F)F)n1` [Ex 12-95, (1S,2R)-2-(3-((2-(difluoromethoxy)-6-methylpyridin-3-yl)carbamoyl)-3-(2-isopropylphenyl)azetidine-1-carbonyl)cyclopropane-1-carboxylic acid], for which the negative logarithm of the IC50 (pIC50) was 7.85.
In turn, `COC(=O)[C@@H]1C[C@@H]1C(=O)N1CC(C(=O)Nc2ccc(C)nc2OC(F)F)(c2ccccc2C(C)C)C1` [Ex 12-96, methyl (1R,2S)-2-(3-((2-(difluoromethoxy)-6-methylpyridin-3-yl)carbamoyl)-3-(2-isopropylphenyl)azetidine-1-carbonyl)cyclopropane-1-carboxylate] gave a pIC50 of 7.47.
Consider `Cc1ccc(NC(=O)C2(c3ccccc3C(C)C)CN(C(=O)[C@H]3C[C@H]3C(=O)O)C2)c(OC(F)F)n1` [Ex 12-97, (1R,2S)-2-(3-((2-(difluoromethoxy)-6-methylpyridin-3-yl)carbamoyl)-3-(2-isopropylphenyl)azetidine-1-carbonyl)cyclopropane-1-carboxylic acid], for which the pIC50 was 7.89.
Regarding `Cc1ccc(NC(=O)C2(c3ccccc3C(C)C)CN(C(=O)CC3(C(=O)O)COC3)C2)c(OC(F)F)n1` [Ex 12-98, 3-(2-(3-((2-(difluoromethoxy)-6-methylpyridin-3-yl)carbamoyl)-3-(2-isopropylphenyl)azetidin-1-yl)-2-oxoethyl)oxetane-3-carboxylic acid], the pIC50 was 7.59.
For `Cc1ccc(NC(=O)C2(c3ccccc3C(C)C)CN(C(=O)C3(CC(=O)O)COC3)C2)c(OC(F)F)n1` [Ex 12-99, 2-(3-(3-((2-(difluoromethoxy)-6-methylpyridin-3-yl)carbamoyl)-3-(2-isopropylphenyl)azetidine-1-carbonyl)oxetan-3-yl)acetic acid], the negative logarithm of the IC50 (pIC50) was 7.80.
With `CCOC(=O)C[C@H](N)C(=O)N1CC(C(=O)Nc2ccc(C)nc2OC(F)F)(c2ccccc2C(C)C)C1` [Ex 12-100, ethyl (S)-3-amino-4-(3-((2-(difluoromethoxy)-6-methylpyridin-3-yl)carbamoyl)-3-(2-isopropylphenyl)azetidin-1-yl)-4-oxobutanoate] the figure was 7.64; with `Cc1ccc(NC(=O)C2(c3ccccc3C(C)C)CN(C(=O)CCC(C)(C)C(=O)O)C2)c(OC(F)F)n1` [Ex 12-103, 5-(3-((2-(difluoromethoxy)-6-methylpyridin-3-yl)carbamoyl)-3-(2-isopropylphenyl)azetidin-1-yl)-2,2-dimethyl-5-oxopentanoic acid], 7.72.
On to `CCOC(=O)C[C@@H](CC(=O)N1CC(C(=O)Nc2ccc(C)nc2OC(F)F)(c2ccccc2C(C)C)C1)OC(C)=O` [Ex 12-104, ethyl (R)-3-acetoxy-5-(3-((2-(difluoromethoxy)-6-methylpyridin-3-yl)carbamoyl)-3-(2-isopropylphenyl)azetidin-1-yl)-5-oxopentanoate], for which the pIC50 was 7.39.
As for `Cc1ccc(NC(=O)C2(c3ccccc3C(C)C)CN(C(=O)C[C@@H](O)CC(=O)O)C2)c(OC(F)F)n1` [Ex 12-105, (R)-5-(3-((2-(difluoromethoxy)-6-methylpyridin-3-yl)carbamoyl)-3-(2-isopropylphenyl)azetidin-1-yl)-3-hydroxy-5-oxopentanoic acid], the negative-log IC50 (pIC50) is 7.27.
With `Cc1ccc(NC(=O)C2(c3ccccc3C(C)C)CN(C(=O)COCCOCC(=O)OCc3ccccc3)C2)c(OC(F)F)n1` [Ex 12-106, benzyl 2-(2-(2-(3-((2-(difluoromethoxy)-6-methylpyridin-3-yl)carbamoyl)-3-(2-isopropylphenyl)azetidin-1-yl)-2-oxoethoxy)ethoxy)acetate] the figure was 7.23.
Regarding `Cc1ccc(NC(=O)C2(c3ccccc3C(C)C)CN(C(=O)COCCOCC(=O)O)C2)c(OC(F)F)n1` [Ex 12-107, 2-(2-(2-(3-((2-(difluoromethoxy)-6-methylpyridin-3-yl)carbamoyl)-3-(2-isopropylphenyl)azetidin-1-yl)-2-oxoethoxy)ethoxy)acetic acid], the pIC50 is 6.82.
With `Cc1ccc(NC(=O)C2(c3ccccc3C(C)C)CN(C(=O)C3C4CC3(C(=O)O)C4)C2)c(OC(F)F)n1` (stereo not shown) [Ex 12-108, 2-(3-((2-(difluoromethoxy)-6-methylpyridin-3-yl)carbamoyl)-3-(2-isopropylphenyl)azetidine-1-carbonyl)bicyclo[1.1.1]pentane-1-carboxylic acid] the figure was 7.55; with `Cc1ccc(NC(=O)C2(c3ccccc3C(C)C)CN(C(=O)CCOCC(=O)OCc3ccccc3)C2)c(OC(F)F)n1` [Ex 12-109, benzyl 2-(3-(3-((2-(difluoromethoxy)-6-methylpyridin-3-yl)carbamoyl)-3-(2-isopropylphenyl)azetidin-1-yl)-3-oxopropoxy)acetate], 7.70.
`Cc1ccc(NC(=O)C2(c3ccccc3C(C)C)CN(C(=O)CCOCC(=O)O)C2)c(OC(F)F)n1` [Ex 12-110, 2-(3-(3-((2-(difluoromethoxy)-6-methylpyridin-3-yl)carbamoyl)-3-(2-isopropylphenyl)azetidin-1-yl)-3-oxopropoxy)acetic acid] had a negative-log IC50 (pIC50) of 7.18.
`CCOC(=O)C(F)(F)CC(=O)N1CC(C(=O)Nc2ccc(C)nc2OC(F)F)(c2ccccc2C(C)C)C1` [Ex 12-111, ethyl 4-(3-((2-(difluoromethoxy)-6-methylpyridin-3-yl)carbamoyl)-3-(2-isopropylphenyl)azetidin-1-yl)-2,2-difluoro-4-oxobutanoate] showed a pIC50 of 7.74.
The figure for `Cc1ccc(NC(=O)C2(c3ccccc3C(C)C)CN(C(=O)CC(F)(F)C(=O)O)C2)c(OC(F)F)n1` [Ex 12-112, 4-(3-((2-(difluoromethoxy)-6-methylpyridin-3-yl)carbamoyl)-3-(2-isopropylphenyl)azetidin-1-yl)-2,2-difluoro-4-oxobutanoic acid] is 7.41.
The figure for `CCOC(=O)C1(C(=O)N2CC(C(=O)Nc3ccc(C)nc3OC(F)F)(c3ccccc3C(C)C)C2)CNC1` [Ex 12-113, ethyl 3-(3-((2-(difluoromethoxy)-6-methylpyridin-3-yl)carbamoyl)-3-(2-isopropylphenyl)azetidine-1-carbonyl)azetidine-3-carboxylate] is 7.28; for `Cc1ccc(NC(=O)C2(c3ccccc3C(C)C)CN(C(=O)C3(C(=O)O)CNC3)C2)c(OC(F)F)n1` [Ex 12-114, 3-(3-((2-(difluoromethoxy)-6-methylpyridin-3-yl)carbamoyl)-3-(2-isopropylphenyl)azetidine-1-carbonyl)azetidine-3-carboxylic acid] it is 5.57.
As for `Cc1ccc(NC(=O)C2(c3ccccc3C(C)C)CN(C(=O)C(F)(F)CC(=O)O)C2)c(OC(F)F)n1` [Ex 12-115, 4-(3-((2-(difluoromethoxy)-6-methylpyridin-3-yl)carbamoyl)-3-(2-isopropylphenyl)azetidin-1-yl)-3,3-difluoro-4-oxobutanoic acid], the pIC50 was 8.15.
For the compound `Cc1ccc(NC(=O)C2(c3ccccc3C(C)C)CN(C(=O)C[C@@](C)(O)C(=O)O)C2)c(OC(F)F)n1` [Ex 12-116, (R)-4-(3-((2-(difluoromethoxy)-6-methylpyridin-3-yl)carbamoyl)-3-(2-isopropylphenyl)azetidin-1-yl)-2-hydroxy-2-methyl-4-oxobutanoic acid], the pIC50 was 7.20.
